Results published in PMC3908613 (Bioscience Reports, 2014).

What was measured:
[1] = biological target: T1, GST-Lok (Homo sapiens, UniProt O94804); test: Kinase assay for recombinant Lok; assay type: biochemical; details: 25 μM ATP, 100 μM AXLTIDE substrate
T1 construct: GST; purchased DSTT

[2] = biological target: T2, Erk1/2 (Mus musculus, UniProt P63085); test: Desthiobiotin-ATP probe capture on streptavidin beads, Western blot; assay type: binding, C57BL/6 mice; details: 10 μM inhibitor, DC lysate
T2 construct: recovered on streptavidin beads following desthiobiotin-ATP labelling of DC lysates including Rsk2, Erk1/2 and p38; endogenous in cells; host or cells: mouse spleen-derived dendritic cells (SDC), lysate
Description: (§1) SDC were cultured for at least 14 days in RPMI (without arginine and lysine, custom-made by Biosera) containing 10% dialysed FCS (Hyclone) supplemented with 84 mg/l of L-arginine (Sigma) and 40 mg/l L-lysine (Sigma) for the 'light' medium or 84 mg/l of […] or ^13C10 and 40 mg/l […] (Cambridge Isotope Laboratory) for the 'heavy' medium. Equal numbers (2×10^7) of 'light' or 'heavy' labelled SDCs were incubated in RPMI containing 0.5% FCS for 3 h in 15 cm dishes. The cells were lysed in the lysis buffer provided in the kit (Pierce). […] Labelling with the desthiobiotin ATP probe, and precipitation with streptavidin beads were performed according to the manufacturer's instructions (Pierce kinase enrichment kit or ActivXTM).

[3] = system: p38; test: as above; assay type: binding, C57BL/6 mice; details: 10 μM inhibitor, DC lysate
Description: as §1

[4] = system: BMDC; test: Cytokine production by LPS-stimulated BMDC (ELISA); assay type: cell-based, C57BL/6 mice
Description: DCs were generated from the bone marrow or the spleen of C57BL/6 mice as previously described. Briefly, bone marrow cells were cultured for 7 days at 37°C, 5% (v/v) CO2 in complete RPMI medium supplemented with 10 ng/ml recombinant granulocyte-macrophage colony-stimulating factor (GM-CSF; Peprotech). Spleen cells were cultured for 14 days at 37°C, 5% CO2 in complete RPMI containing 10 ng/ml GM-CSF and 1 ng/ml TGFβ (transforming growth factor-β; R&D Systems). NIH3T3 cells (European Cell Culture Collection) were cultured in DMEM (Dulbecco's modified Eagle's medium) supplemented with glutamine, penicillin, streptomycin and 10% (v/v) calf serum (Invitrogen). […] The amounts of TNFα (tumour necrosis factor α), IL6 (interleukin 6) and IL10 in the supernatant were measured using ELISA kits specific for each cytokine (TNFα, IL6; Peprotech, IL10; R&D Systems).

[5] = system: BMDC; test: Immunoblot of phosphorylated signalling proteins in stimulated BMDC; assay type: cell-based, C57BL/6 mice
Description: BMDC (1.5×10^6 cells) were incubated in 6-well plates in RPMI supplemented with 0.3% FCS for 5 h at 37°C. […] NIH3T3 cells (2×10^4) were plated in 6-well plates for 48 h at 37°C. The cells were deprived of serum for 8 h in DMEM supplemented with 2 mg/ml BSA (Sigma) and then stimulated with 100 ng/ml EGF (epidermal growth factor; Peprotech) for 5 min at 37°C.
Cells were washed in cold PBS, lysed on ice for 10 min in lysis buffer (1% Triton X-100 containing 50 mM Tris–HCl (pH 7.5), 150 mM NaCl, 1 mM EGTA, 1 mM EDTA, 10 mM NaF, 1 mM sodium orthovanadate and 5 mM sodium pyrophosphate and protease inhibitors (Roche)) and centrifuged for 10 min at 20000 g at 4°C.
BMDC (5×10^6 cells) were stimulated as described above. Lysates were pre-cleared with protein G Sepharose beads (Roche) for 30 min at 4°C. Paxillin was immunoprecipitated with 2 μg of anti-paxillin (Millipore) or with anti-IgG antibodies (Santa Cruz Biotechnology) for 1 h at 4°C and then incubated with 15 μl protein G Sepharose beads for 1 h at 4°C. Beads were washed four times with lysis buffer and paxillin was eluted with NuPage sample buffer (Invitrogen). The immunoprecipitated proteins were separated by electrophoresis on a 10% (w/v) NuPage gel and transferred onto a nitrocellulose membrane. The membrane was probed with anti-phospho Ser250-paxilin (kind gift of Luc Sabourin, McMaster University, Canada) or anti-paxillin antibodies.

[6] = biological target: T3, Lok (Mus musculus, UniProt O55098); test: Activity of Lok immunoprecipitated from BMDC; assay type: biochemical, C57BL/6 mice; details: immunoprecipitates treated with 1 μM D1870; resting and LPS-stimulated DC
T3 construct: Mst1, Lok and Slk were immunoprecipated from 150 μg, 850 μg and 1 mg of cell lysates respectively; endogenous in cells; host or cells: mouse bone-marrow-derived dendritic cells (BMDC), immunoprecipitate
Description: Equal numbers of BMDC (1×10^7/dish) were incubated in 15 cm dishes in RPMI supplemented with 0.3% FCS for 3 h at 37°C then incubated for 30 min with or without 50 ng/ml LPS. The cells were washed once in cold PBS and lysed in the lysis buffer described above. Mst1, Lok and Slk were immunoprecipated from 150 μg, 850 μg and 1 mg of cell lysates respectively with 2 μg of anti-MST1 (Cell Signalling), anti-Slk (Bethyl) or anti-Lok (Bethyl) or control IgG (Santa Cruz Biotech) coupled to G-protein Sepharose (Amersham) for 1 h at 4°C. […] Kinase assays were performed as described above.
A combination of SILAC and nucleotide acyl
Alexander J. EDGAR*, Matthias TROST†, Colin WATTS*1 and Rossana ZARU*1
*Division of Cell Signalling and Immunolog y, University of Dundee, Dow Street, Dundee DD1 5EH, U.K., and †MRC Protein Phosphor ylation and Ubiquitylation Unit, College of Life Sciences, University of Dundee, Dow Street, Dundee DD1 5EH, U.K.
Supplementary Table S1 is available at http://www.bioscirep.
Mst1, Lok and Slk activities in DC either unstimulated or stimulated with LPS (50 ng/ml) for 30 min at 37 ◦ C. Immuno- […]
of triplicate stimulations. *P < 0.05, **P < 0.01, ***P < 0.001, ns not signiﬁcant.
1 Correspondence may be addressed to either of these authors (email c.watts@dundee.ac.uk or r.zaru@dundee.ac.uk). […]

[7] = LPS 50 ng/ml, 18 h, increasing concentrations of inhibitor

T2 sequence (P63085 2-358): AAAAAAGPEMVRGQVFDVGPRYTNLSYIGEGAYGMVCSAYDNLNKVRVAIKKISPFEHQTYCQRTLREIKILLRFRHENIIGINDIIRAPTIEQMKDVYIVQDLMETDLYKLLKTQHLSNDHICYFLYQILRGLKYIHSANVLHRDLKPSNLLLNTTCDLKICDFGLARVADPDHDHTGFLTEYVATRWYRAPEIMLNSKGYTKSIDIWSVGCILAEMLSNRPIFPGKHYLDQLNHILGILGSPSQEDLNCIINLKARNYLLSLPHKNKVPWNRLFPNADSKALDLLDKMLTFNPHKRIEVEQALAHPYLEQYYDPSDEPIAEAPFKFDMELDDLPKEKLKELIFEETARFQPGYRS
T3 sequence (O55098 whole entry): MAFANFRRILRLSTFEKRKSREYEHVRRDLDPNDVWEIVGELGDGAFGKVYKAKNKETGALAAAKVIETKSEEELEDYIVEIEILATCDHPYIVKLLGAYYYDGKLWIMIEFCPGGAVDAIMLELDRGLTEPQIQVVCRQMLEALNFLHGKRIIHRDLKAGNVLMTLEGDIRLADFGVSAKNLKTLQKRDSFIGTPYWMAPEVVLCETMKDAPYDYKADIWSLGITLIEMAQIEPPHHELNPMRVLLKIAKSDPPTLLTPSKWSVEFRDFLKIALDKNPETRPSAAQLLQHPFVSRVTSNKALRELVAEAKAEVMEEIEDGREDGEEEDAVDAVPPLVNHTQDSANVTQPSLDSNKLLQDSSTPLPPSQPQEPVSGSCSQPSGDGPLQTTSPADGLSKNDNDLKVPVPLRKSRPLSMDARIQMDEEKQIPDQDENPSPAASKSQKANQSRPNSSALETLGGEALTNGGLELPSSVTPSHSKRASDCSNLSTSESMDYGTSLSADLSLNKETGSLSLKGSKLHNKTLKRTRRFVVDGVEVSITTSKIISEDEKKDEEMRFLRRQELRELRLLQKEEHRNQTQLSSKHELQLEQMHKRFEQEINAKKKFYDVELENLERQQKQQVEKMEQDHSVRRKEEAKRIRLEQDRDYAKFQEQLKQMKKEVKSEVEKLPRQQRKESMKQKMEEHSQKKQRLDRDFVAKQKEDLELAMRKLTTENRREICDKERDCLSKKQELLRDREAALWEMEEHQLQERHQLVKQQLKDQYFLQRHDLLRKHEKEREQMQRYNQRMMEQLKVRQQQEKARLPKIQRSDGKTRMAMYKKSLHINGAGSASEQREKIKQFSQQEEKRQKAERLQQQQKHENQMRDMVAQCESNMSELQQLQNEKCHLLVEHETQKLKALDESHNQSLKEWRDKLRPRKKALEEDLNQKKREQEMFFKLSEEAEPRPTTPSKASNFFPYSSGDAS
T1 sequence (O94804 whole entry): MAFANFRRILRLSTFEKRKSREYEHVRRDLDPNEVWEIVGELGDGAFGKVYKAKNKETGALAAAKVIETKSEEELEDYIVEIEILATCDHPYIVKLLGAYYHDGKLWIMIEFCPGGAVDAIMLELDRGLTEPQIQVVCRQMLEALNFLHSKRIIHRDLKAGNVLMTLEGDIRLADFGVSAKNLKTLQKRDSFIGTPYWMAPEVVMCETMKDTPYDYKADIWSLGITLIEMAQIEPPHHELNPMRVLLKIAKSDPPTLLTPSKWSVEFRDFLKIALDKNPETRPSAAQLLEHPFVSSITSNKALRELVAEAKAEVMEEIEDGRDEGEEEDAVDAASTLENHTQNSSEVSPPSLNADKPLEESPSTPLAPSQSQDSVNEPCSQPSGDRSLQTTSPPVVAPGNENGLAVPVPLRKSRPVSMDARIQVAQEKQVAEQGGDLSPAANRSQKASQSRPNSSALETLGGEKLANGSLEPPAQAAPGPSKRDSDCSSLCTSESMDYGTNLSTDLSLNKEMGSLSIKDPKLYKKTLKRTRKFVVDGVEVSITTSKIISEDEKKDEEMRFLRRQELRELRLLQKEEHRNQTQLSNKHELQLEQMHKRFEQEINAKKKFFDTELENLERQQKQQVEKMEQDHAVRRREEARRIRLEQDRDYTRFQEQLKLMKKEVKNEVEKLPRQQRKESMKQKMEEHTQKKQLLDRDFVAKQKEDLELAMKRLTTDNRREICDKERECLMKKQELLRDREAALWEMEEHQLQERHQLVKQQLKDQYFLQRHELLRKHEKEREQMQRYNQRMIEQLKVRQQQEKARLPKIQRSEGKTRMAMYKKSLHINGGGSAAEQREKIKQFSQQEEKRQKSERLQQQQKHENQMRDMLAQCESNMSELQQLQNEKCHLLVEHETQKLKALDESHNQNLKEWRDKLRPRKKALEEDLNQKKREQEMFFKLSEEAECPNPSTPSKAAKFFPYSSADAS

SMILES: CC(C)CCN1c2nc(Nc3cc(F)c(O)c(F)c3)ncc2N(C)C(=O)C1C (stereo not drawn) [D1870, BI-D1870]
- IC50 [1]: 500 nM
- capture of Erk1/2 on streptavidin beads [2]: not Erk1/2 or p38, was blocked
- capture of p38 on streptavidin beads [3]: not Erk1/2 or p38, was blocked
- IL6 secretion [4, 7]: dose-dependent inhibition
- IL10 secretion [4, 7]: dose-dependent inhibition
- TNFα production [4, 7]: not by D1870
- mRNA levels of IL6 and IL10 ([4]; after 1 or 3 h of LPS stimulation, data not shown): rapidly inhibited
- Concentration blocking phosphorylation of Bad (Ser112) ([5]; LPS 50 ng/ml, 30 min): ≤ 1 µM
- Concentration blocking phosphorylation of filamin A (Ser2152) ([5]; LPS 50 ng/ml, 30 min): ≤ 1 µM
- Erk1/2, p38 or JNK1/2 phosphorylation ([5]; LPS 50 ng/ml, 30 min): Neither inhibitor had any effect
- GSK3α/β phosphorylation ([5]; LPS 50 ng/ml, 30 min): more potent
- PKB phosphorylation at Ser473 and Thr308 ([5]; LPS 50 ng/ml, 30 min): complete block
- Phosphorylation of MSK1 and MK2 ([5]; LPS 50 ng/ml, 30 min): not affected
- phosphorylation of IκBα ([5]; LPS 50 ng/ml, 30 min): neither D1870 nor BIX affected
- phosphorylation of ERM proteins ([5]; LPS, 30 min): substantial decrease
- phosphorylation of paxillin on Ser250 ([5]; LPS, 30 min, paxillin immunoprecipitated): prevented its phosphorylation at low concentrations
- PKB phosphorylation ([5]; MIP1α 100 ng/ml, 5 min, 4 μM D1870): impaired
- kinase activity of Lok immunoprecipitated from DC [6]: substantially inhibited
